In ChEMBL document CHEMBL1158743, “Tenellones A and B from a Diaporthe sp.: two highly substituted benzophenone inhibitors of parasite cGMP-dependent protein kinase activity” (J Nat Prod, 2005) one finds IC50, MIC and Activity data, which are given here for four molecules.

≈ marks a conversion by molar mass, not a printed value. Calls of active or inactive are those of the source. The rule behind the calls is not given here.

The target of data set [1] is cGMP-dependent protein kinase (Eimeria tenella, UniProt Q8MMZ8). Description: Inhibition of Eimera tenella CGMP-dependent protein kinase by radiometric assay.
Chain of cGMP-dependent protein kinase (Q8MMZ8 whole entry): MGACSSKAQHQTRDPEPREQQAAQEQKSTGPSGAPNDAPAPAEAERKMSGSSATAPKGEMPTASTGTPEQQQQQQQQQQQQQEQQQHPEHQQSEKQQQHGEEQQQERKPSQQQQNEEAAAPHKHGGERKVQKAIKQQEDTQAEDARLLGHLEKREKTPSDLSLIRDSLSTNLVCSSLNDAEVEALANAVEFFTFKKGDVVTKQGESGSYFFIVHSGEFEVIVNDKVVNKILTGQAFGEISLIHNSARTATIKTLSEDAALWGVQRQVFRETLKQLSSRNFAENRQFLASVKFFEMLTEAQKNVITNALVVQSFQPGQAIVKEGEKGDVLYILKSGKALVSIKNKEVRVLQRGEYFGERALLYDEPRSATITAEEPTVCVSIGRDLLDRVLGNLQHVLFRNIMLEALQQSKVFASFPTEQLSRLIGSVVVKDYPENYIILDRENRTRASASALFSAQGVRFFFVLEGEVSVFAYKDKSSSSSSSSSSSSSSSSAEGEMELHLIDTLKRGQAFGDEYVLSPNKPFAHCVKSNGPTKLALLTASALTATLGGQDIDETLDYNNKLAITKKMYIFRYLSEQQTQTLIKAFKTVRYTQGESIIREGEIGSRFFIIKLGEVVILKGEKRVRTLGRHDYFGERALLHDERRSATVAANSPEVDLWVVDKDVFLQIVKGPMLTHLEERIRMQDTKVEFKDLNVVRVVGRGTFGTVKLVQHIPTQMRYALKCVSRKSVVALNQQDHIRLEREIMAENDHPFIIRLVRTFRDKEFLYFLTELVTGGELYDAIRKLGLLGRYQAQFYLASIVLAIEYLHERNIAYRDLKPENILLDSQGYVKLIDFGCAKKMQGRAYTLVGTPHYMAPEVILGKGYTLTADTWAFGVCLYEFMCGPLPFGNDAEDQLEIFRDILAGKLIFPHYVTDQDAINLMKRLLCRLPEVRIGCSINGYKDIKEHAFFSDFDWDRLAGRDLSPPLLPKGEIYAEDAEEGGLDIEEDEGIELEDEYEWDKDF
The next data set has as its system Enterococcus faecium. Description: Antibacterial activity against Enterococcus faecium. The class given is functional.
The next data set deals with Staphylococcus aureus. Description: Antibacterial activity against Staphylococcus aureus. The class given is functional.
Another data set concerns Toxoplasma gondii. Briefly: Antiparasitic activity against Toxoplasma gondii infected in human foreskin fibroblasts assessed as beta-galactosidase activity after 5 days by whole cell assay. The format is functional, organism-based. The settings on record: 120 h.
Another data set has as its system Eimeria tenella. Description: Antiparasitic activity against Eimera tenella infected in chickens given ad libitum at 100 ppm fed with diet. The format is functional, organism-based.
For another data set, the species on record is Gallus gallus. Briefly: Toxicity to Eimera tenella infected chickens given ad libitum at 100 ppm. The class given is organism-based. The settings on record: chicken, in vivo, po.

For `CN1CCC(c2cc(-c3ccncc3)c(-c3ccc(F)cc3)[nH]2)CC1`, the IC50 in data set [1] is less than 0.001 µM.
As to `COc1c(Cl)c(C)c(Cl)c(O)c1C(=O)c1c(C=O)c(O)cc(O)c1CC=C(C)C` [PESTALONE], the minimum inhibitory concentration (MIC) with Enterococcus faecium is 0.078 µg/mL (≈ 0.178 µM); with Staphylococcus aureus, 0.037 µg/mL (≈ 0.0842 µM).
Turning to `CC(C)=CCc1ccc(O)c(C=O)c1C(=O)c1cc(C)cc(OCC(O)C(C)(C)O)c1O` (stereo not given) [TENELLONE A], the values for the IC50 (in the data set on Toxoplasma gondii; in data set [1]) were 1.8 µM and 12.6 µM, respectively. In addition, the outcome in the data set on Eimeria tenella was inactive. Further, the Activity entry in the data set listed under Gallus gallus is listed as “Non-toxic”.
Turning to `CC(C)=CCc1ccc(O)c(C=O)c1C(=O)c1cc(C)cc2c1OC(C(C)(C)O)CO2` (stereo not given) [TENELLONE B], the result in the data set on Eimeria tenella was inactive. In addition, the Activity entry in the data set filed under Gallus gallus was “Non-toxic”. In addition, half-maximal inhibition in data set [1] (IC50) was put at 8.7 µM.
